# Measurements reported in patent EP0496332A1, “Alpha-aminoquinolinoyl-[3]-penicillines, process for their preparation and their use as antibacterial agents” (ARZNEIMITTELWERK DRESDEN GmbH, priority 1991, dated 1992).
# What was measured:
# Test in all cases: In-vitro test, inhibitory concentration by dilution series
# Format in all cases: cell-based
# [1] = test system: Klebsiella pneumoniae SG 117; conditions: VII = Klebsiella pneumoniae SG 117, step = concentration with no visible growth; for MIC: SG117, read-out: Hemmkonzentration nach Verdünnung (Verdünnungsreihe) (converted)
# Description: (§1) Die antibiotische Wirksamkeit erfindungsgemäßer Verbindungen wurde in der üblichen Weise durch Ermittlung der Hemmkonzentrationen nach Verdünnung ermittelt.
# (§2) Die erhaltenen Ergebnisse sind in der nachstehenden Tabelle zusammengefaßt.
# [2] = test system: Proteus vulgaris OX 19; conditions: III = Proteus vulgaris OX 19, step = concentration with no visible growth; for MIC: OX19, read-out: Hemmkonzentration nach Verdünnung (Verdünnungsreihe) (converted)
# Description: as §1, §2
# [3] = test system: Staphylococcus epidermidis; conditions: X = Staphylococcus epidermidis, Laborstämme, step = concentration with no visible growth; for MIC: read-out: Hemmkonzentration nach Verdünnung (Verdünnungsreihe) (converted)
# Description: as §1, §2
# [4] = test system: Staphylococcus aureus SG 511; conditions: II = Staphylococcus aureus SG 511, step = concentration with no visible growth; for MIC: SG511, read-out: Hemmkonzentration nach Verdünnung (Verdünnungsreihe) (converted)
# Description: as §1, §2
# [5] = test system: Pseudomonas aeruginosa SG 137; conditions: V = Pseudomonas aeruginosa SG 137, step = concentration with no visible growth; for MIC: SG137, read-out: Hemmkonzentration nach Verdünnung (Verdünnungsreihe) (converted)
# Description: as §1, §2
# [6] = test system: Pseudomonas aeruginosa NCTC 10701; conditions: IV = Pseudomonas aeruginosa NCTC 10701, step = concentration with no visible growth; for MIC: NCTC10701, read-out: Hemmkonzentration nach Verdünnung (Verdünnungsreihe) (converted)
# Description: as §1, §2
# [7] = test system: Salmonella gallinarium ATCC 9184; conditions: ATCC9184; VI = Salmonella gallinarium ATCC 9184; step = concentration with no visible growth; read-out: Hemmkonzentration nach Verdünnung (Verdünnungsreihe) (converted)
# Description: as §1, §2
# [8] = test system: Bacillus subtilis SG 119; conditions: I = Bacillus subtilis SG 119, step = concentration with no visible growth; for MIC: SG119, read-out: Hemmkonzentration nach Verdünnung (Verdünnungsreihe) (converted)
# Description: as §1, §2
# [9] = test system: Enterobacter cloacae; conditions: XIII = Enterobacter cloacae, Laborstämme, step = concentration with no visible growth; for MIC: read-out: Hemmkonzentration nach Verdünnung (Verdünnungsreihe) (converted)
# Description: as §1, §2
# [10] = test system: Escherichia coli; conditions: XII = Escherichia coli, Laborstämme, step = concentration with no visible growth; for MIC: read-out: Hemmkonzentration nach Verdünnung (Verdünnungsreihe) (converted)
# Description: as §1, §2
# [11] = test system: Enterokokken; conditions: XI = Enterokokken, Laborstämme, step = concentration with no visible growth; for MIC: read-out: Hemmkonzentration nach Verdünnung (Verdünnungsreihe) (converted)
# Description: as §1, §2
# [12] = test system: Staphylococcus aureus; conditions: IX = Staphylococcus aureus, Laborstämme, step = concentration with no visible growth; for MIC: read-out: Hemmkonzentration nach Verdünnung (Verdünnungsreihe) (converted)
# Description: as §1, §2
# [13] = test system: Citrobacter freudii; conditions: XIV = Citrobacter freudii, Laborstämme, step = concentration with no visible growth; for MIC: read-out: Hemmkonzentration nach Verdünnung (Verdünnungsreihe) (converted)
# Description: as §1, §2
# [14] = test system: Serratia marcescens SG 621; conditions: VIII = Serratia marcescens SG 621, step = concentration with no visible growth; for MIC: SG621, read-out: Hemmkonzentration nach Verdünnung (Verdünnungsreihe) (converted)
# Description: as §1, §2
SMILES,MIC [1],MIC [2],MIC [3],MIC [4],MIC [5],MIC [6],MIC [7],MIC [8],MIC [9],MIC [10],MIC [11],MIC [12],MIC [13],MIC [14],other results
"CCc1cc2c(OC(=O)OCC(C)C)c(C(=O)N[C@@H](C(=O)N[C@@H]3C(=O)N4[C@@H]3SC(C)(C)[C@@H]4C(=O)O)c3ccccc3)cnc2cc1COC(C)CC (stereo partly drawn) [Beisp. 22, 6-[D-(-)-α-([4'-Isobutoxycarbonyloxy-6'-ethyl-7'-s-butoxymethylen-chinolinoyl-3']-carboxamido)-α-phenylacetamido]-penicillansäure-Natriumsalz]",0.78 µM,0.39 µM,12.5 µM,1.56 µM,12.5 µM,0.78 µM,1.56 µM,1.56 µM,6.25 µM,1.56 µM,12.5 µM,25 µM,3.12 µM,1.56 µM,–
"CCc1cc2c(OC(=O)OCC(C)C)c(C(=O)N[C@@H](C(=O)N[C@@H]3C(=O)N4[C@@H]3SC(C)(C)[C@@H]4C(=O)O)c3ccccc3)cnc2cc1COC(C)C [Beisp. 21, 6-[D-(-)-α-([4'-Isobutoxycarbonyloxy-6'-ethyl-7'-isopropoxymethylen-chinolinoyl-3']-carboxamido)-α-phenylacetamido]-penicillansäure-Natriumsalz]",0.78 µM,0.39 µM,6.25 µM,1.56 µM,6.25 µM,0.78 µM,3.12 µM,1.56 µM,6.25 µM,1.56 µM,12.5 µM,12.5 µM,6.25 µM,1.56 µM,–
"COc1cc2ncc(C(=O)N[C@@H](C(=O)N[C@@H]3C(=O)N4[C@@H]3SC(C)(C)[C@@H]4C(=O)O)c3ccccc3)c(OC(=O)OCC(C)C)c2cc1OC [Beisp. 20, 6-[D-(-)-α-([4'-Isobutoxycarbonyloxy-6',7'-dimethoxychinolinoyl-3']-carboxamido)-α-phenylacetamido]-penicillansäure-Natriumsalz]",1.56 µM,0.39 µM,6.25 µM,1.56 µM,12.5 µM,0.39 µM,3.12 µM,1.56 µM,12.5 µM,3.12 µM,12.5 µM,25 µM,12.5 µM,6.25 µM,–
"CCOC(=O)Oc1c(C(=O)N[C@@H](C(=O)N[C@@H]2C(=O)N3[C@@H]2SC(C)(C)[C@@H]3C(=O)O)c2ccccc2)cnc2cc(COc3ccc(C)cc3)c(CC)cc12 [Beisp. 3, 6-[D-(-)-α-([4'-Ethoxycarbonyloxy-6'-ethyl-7'-(4''-methyl)-phenoxymethylen-chinolinoyl-3']-carboxamido)-α-phenylacetamido]-penicillansäure-Natriumsalz]",0.78 µM,0.39 µM,12.5 µM,0.78 µM,12.5 µM,3.12 µM,3.12 µM,1.56 µM,6.25 µM,1.56 µM,25 µM,50 µM,6.25 µM,0.78 µM,–
"CCc1cc2c(OC(=O)OCC(C)C)c(C(=O)N[C@@H](C(=O)N[C@@H]3C(=O)N4[C@@H]3SC(C)(C)[C@@H]4C(=O)O)c3ccccc3)cnc2cc1COc1ccc(C(C)=O)cc1 [Beisp. 15, 6-[D-(-)-α-([4'-Isobutoxycarbonyloxy-6'-ethyl-7'-(4''-acetyl)-phenoxymethylen-chinolinoyl-3']-carboxamido)-α-phenylacetamido]-penicillansäure-Natriumsalz]",0.78 µM,0.39 µM,3.12 µM,0.78 µM,3.12 µM,3.12 µM,1.56 µM,3.12 µM,3.12 µM,1.56 µM,6.25 µM,6.25 µM,3.12 µM,0.78 µM,–
"CCc1cc2c(OC(=O)OCC(C)C)c(C(=O)N[C@@H](C(=O)N[C@@H]3C(=O)N4[C@@H]3SC(C)(C)[C@@H]4C(=O)O)c3ccccc3)cnc2cc1COC [Beisp. 18, 6-[D-(-)-α-([4'-Isobutoxycarbonyloxy-6'-ethyl-7'-methoxymethylen-chinolinoyl-3']-carboxamido)-α-phenylacetamido]-penicillansäure-Natriumsalz]",0.78 µM,0.39 µM,6.25 µM,1.56 µM,6.25 µM,0.78 µM,3.12 µM,1.56 µM,6.25 µM,1.56 µM,25 µM,0.39 µM,6.25 µM,3.12 µM,–
"CC(C)COC(=O)Oc1c(C(=O)N[C@@H](C(=O)N[C@@H]2C(=O)N3[C@@H]2SC(C)(C)[C@@H]3C(=O)[O-])c2ccccc2)cnc2c1ccc1ccccc12.[Na+] [Beisp. 12, 6-[D-(-)-α-([4'-Isobutoxycarbonyloxybenzo[1,2n]chinolinoyl-3']-carboxamido)-α-phenylacetamido]-penicillansäure-Natriumsalz]",–,–,–,–,–,–,–,–,–,–,–,–,–,–,"Hemmkonzentration nach Verdünnung (Verdünnungsreihe) [1]: 9 (= bei 0,00078 mM); Hemmkonzentration nach Verdünnung (Verdünnungsreihe) [2]: 10 (= bei 0,00039 mM); Hemmkonzentration nach Verdünnung (Verdünnungsreihe) [3]: 7 (= bei 0,00312 mM); Hemmkonzentration nach Verdünnung (Verdünnungsreihe) [4]: 9 (= bei 0,00078 mM); Hemmkonzentration nach Verdünnung (Verdünnungsreihe) [5]: 5 (= bei 0,0125 mM); Hemmkonzentration nach Verdünnung (Verdünnungsreihe) [6]: 7 (= bei 0,00312 mM); Hemmkonzentration nach Verdünnung (Verdünnungsreihe) [8]: 7 (= bei 0,00312 mM); Hemmkonzentration nach Verdünnung (Verdünnungsreihe) [9]: 6 (= bei 0,00625 mM); Hemmkonzentration nach Verdünnung (Verdünnungsreihe) [10]: 7 (= bei 0,00312 mM); Hemmkonzentration nach Verdünnung (Verdünnungsreihe) [11]: 5 (= bei 0,0125 mM); Hemmkonzentration nach Verdünnung (Verdünnungsreihe) [12]: 6 (= bei 0,00625 mM); Hemmkonzentration nach Verdünnung (Verdünnungsreihe) [13]: 6 (= bei 0,00625 mM); Hemmkonzentration nach Verdünnung (Verdünnungsreihe) [14]: 7 (= bei 0,00312 mM)"
"COc1ccc2ncc(C(=O)N[C@@H](C(=O)N[C@@H]3C(=O)N4[C@@H]3SC(C)(C)[C@@H]4C(=O)O)c3ccccc3)c(O)c2c1 [Beisp. 9, 6-[D-(-)-α-([4'-Hydroxy-6'-methoxy-chinolinoyl-3']-carboxamido)-α-phenylacetamido]-penicillansäure-Natriumsalz]",1.56 µM,0.39 µM,6.25 µM,1.56 µM,25 µM,0.39 µM,1.56 µM,1.56 µM,25 µM,3.12 µM,25 µM,12.5 µM,25 µM,1.56 µM,–
"CCc1cc2c(OC(=O)OCC(C)C)c(C(=O)N[C@@H](C(=O)N[C@@H]3C(=O)N4[C@@H]3SC(C)(C)[C@@H]4C(=O)O)c3ccccc3)cnc2cc1CN1CCOCC1 [Beisp. 14, 6-[D-(-)-α-([4'-Isobutoxycarbonyloxy-6'-ethyl-7'-morpholinomethylen-chinolinoyl-3']-carboxamido)-α-phenylacetamido]-penicillansäure-Natriumsalz]",0.78 µM,0.2 µM,3.12 µM,0.78 µM,6.25 µM,0.78 µM,1.56 µM,6.25 µM,3.12 µM,0.78 µM,6.25 µM,3.12 µM,3.12 µM,0.78 µM,–
